Data taken from patent US9193697B2, “Oxazole derivatives useful as modulators of FAAH” (MERCK SHARP & DOHME CORP., priority 2010, dated 2015).

Key:
[1] = biological target: T1, human FAAH (Fatty Acid Amide Hydrolase) (Homo sapiens (Human), UniProt O00519); test: FAAH inhibition, human FAAH CHO cell lysate (AAMCA fluorescence); format: biochemical
Source text: (§1) To assist in assay development stable cell lines for human, murine and rat full length FAAH were developed. […] The full length FAAH was subcloned into the mammalian expression vector, pcDEF.neo, using XbaI and EcoRI restriction sites and used for stable cell line generation.
(§2) The full length murine FAAH was subcloned into the mammalian expression vector, pcDEFneo using either EcoRI (murine) or KpnI and EcoRI (rat) restriction sites. Chinese hamster ovary cells (CHO) were transfected following manufacturers protocol (AMAXA). Forty eight hours post transfection, cells were trypsinized and transferred to 96 well plates in Iscove's DMEM media supplemented with 2 mM Glutamine, 10% fetal calf serum, 1 mg/ml geneticin and HT Supplement (0.1 mM sodium hypoxanthine, 0.016 mM thymidine) in order to isolate single clones. […] Following removal of tissue culture media cells were dislodged following addition of Cellstripper (Mediatech, Inc. Manassas, Va.) and transferred to 96 well black clear bottom assay plate, centrifuged at 1,000 rpm for 3 mins and media removed and replaced with assay buffer (50 mM Tris pH8.0, 1 mM EDTA, 0.1% fatty acid free BSA). The reaction was initiated by addition of fluorescent substrate, AMC Arachidonoyl Amide (Cayman Chemical, Ann Arbor, Mich.) to 1 μM and reaction allowed to proceed for 2 hours at room temperature. Release of fluorescence was monitored in a CytoFluor Multiplate Reader.
CHO cells expressing FAAH were used to prepare either crude cell lysate or microsome fractions. To harvest cells, tissue culture media was decanted, the monolayer washed three times with Ca^++Mg^++ free PBS and cells recovered after 15 min in enzyme free dissociation media (Millipore Corp, Billerica, Mass.). Cells were collected by centrifuging at 2000 rpm for 15 min, and the cell pellet re-suspended with 50 mM HEPES (pH 7.4) containing 1 mM EDTA and the protease inhibitors aprotinin (1 mg/ml) and leupeptin (100 μM). The suspension was sonicated at 4° C. and the cell lysate recovered after centrifuging at 12,000×g (14,600 rpm, SS34 rotor) for 20 min at 4° C. to form a crude pellet of cell debris, nuclei, peroxisomes, lysosomes, and mitochondria; the supernatant or cell lysate was used for FAAH enzyme assay. In some eases, microsomes fractions enriched in FAAH were prepared by centrifuging the cell lysate further at 27,000 rpm (100,000×g) in SW28 rotor for 50 minutes at 4° C. The pellet containing FAAH-enriched microsomes was re-suspend in 50 mM HEPES, (pH 7.4) 1 mM EDTA, and any remaining DNA sheared by passage of material through a 23 gauge needle and aliquots of enzyme were store at −80° C. prior to use.
(§3) Assays are performed on either cell lysate or microsome fractions prepared as described or in whole cell format employing either the fluorescent substrate AAMCA (Cayman chemical, Ann Arbor, Mich.,) or ^3H-anandamide ([ETHANOLAMINE-1-3H] American Radiolabeled Chemicals; 1 mCi/ml). […] AAMCA substrate was used to achieve a final concentration of 1 μM and reaction allowed to proceed at room temperature for 1-3 hours. […] Whole cell assay is conducted with cells harvested after rinsing tissue culture flasks three times with Ca^++Mg^++ free PBS, incubating for 10 min in Enzyme free dissociation media and centrifuging for 5 minutes at 1,000 rpm in table top centrifuge. Cells are resuspended in assay buffer at desired cell number in (4×10^4 cells/assay in 96-well format; 1×10^4 cells/assay in 384-well format) and assayed as described.
Alternatively, assays are performed using anandamide [ethanolamine 1-^3H] (specific activity of 10 Ci/mmol) diluted with cold anandamide to achieve a final assay concentration of 1 μM anandamide (˜50,000 cpm). Enzyme (CHO cell lysate, brain or liver homogenate) is incubated in assay buffer (50 mM Phosphate, pH 8.0, 1 mM EDTA, 200 mM KCl, 0.2% glycerol, 0.1% fatty acid free BSA) with inhibitor at 25° C. for 30 minutes.

[2] = biological target: T1, human FAAH (Fatty Acid Amide Hydrolase); test: FAAH inhibition, human FAAH CHO whole cell format; format: cell-based
Source text: as §1, §2, §3

T1 sequence (O00519 whole entry): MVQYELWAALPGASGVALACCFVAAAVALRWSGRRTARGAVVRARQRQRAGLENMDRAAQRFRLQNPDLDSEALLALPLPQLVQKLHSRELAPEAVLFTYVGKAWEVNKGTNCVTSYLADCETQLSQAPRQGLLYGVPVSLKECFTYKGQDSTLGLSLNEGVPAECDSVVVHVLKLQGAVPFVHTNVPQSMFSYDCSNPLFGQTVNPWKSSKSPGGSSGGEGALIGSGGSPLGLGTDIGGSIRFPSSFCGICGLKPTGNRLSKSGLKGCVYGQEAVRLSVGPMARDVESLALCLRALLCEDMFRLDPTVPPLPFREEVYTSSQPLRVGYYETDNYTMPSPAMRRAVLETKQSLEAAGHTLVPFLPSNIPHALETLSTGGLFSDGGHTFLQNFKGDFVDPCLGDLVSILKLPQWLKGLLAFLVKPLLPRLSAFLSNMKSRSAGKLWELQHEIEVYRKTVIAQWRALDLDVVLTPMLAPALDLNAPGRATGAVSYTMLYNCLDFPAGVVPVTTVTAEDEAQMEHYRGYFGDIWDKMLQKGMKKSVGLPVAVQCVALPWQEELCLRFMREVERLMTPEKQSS

IC50 [1] [nM]	IC50 [2] [nM]	SMILES
118	421	Clc1ccc(Sc2oc(C3CCOCC3)nc2-c2ccc3ncnn3c2)cc1 [Example B5.6, 6-{5-[(4-chlorophenyl)sulfanyl]-2-(tetrahydro-2H-pyran-4-yl)-1,3-oxazol-4-yl}[1,2,4]triazolo[1,5-a]pyridine]
13.1	36.9	CN(C)c1ncc(-c2nc(C3CCOCC3)oc2Sc2ccc(Cl)cc2)cn1 [Example B5.11, 5-{5-[(4-chlorophenyl)sulfanyl]-2-(tetrahydro-2H-pyran-4-yl)-1,3-oxazol-4-yl}-N,N-dimethylpyrimidin-2-amine]
4530	≥ 10000	Clc1ccc(Sc2oc(C3CCOCC3)nc2C2=CCCNC2)cc1 [Example B5.15, 5-{5-[(4-chlorophenyl)sulfanyl]-2-(tetrahydro-2H-pyran-4-yl)-1,3-oxazol-4-yl}-1,2,3,6-tetrahydropyridine]
67.6	98.1	Clc1ccc(Sc2oc(C3CCOCC3)nc2-c2cnc3[nH]ncc3c2)cc1 [Example B5.10, 5-{5-[(4-chlorophenyl)sulfanyl]-2-(tetrahydro-2H-pyran-4-yl)-1,3-oxazol-4-yl}-1H-pyrazolo[3,4-b]pyridine]
8.68	47.2	C[S+]([O-])c1ccc(-c2nc(C3=CCC(O)CC3)oc2Sc2ccc(Cl)cc2)cc1 (stereo not shown) [Example C6.2, 4-{5-[(4-Chlorophenyl)sulfanyl]-4-[4-(methylsulfinyl)phenyl]-1,3-oxazol-2-yl}cyclohex-3-en-1-ol]
92.2	169	Cn1nnc2ccc(-c3nc(C4CCOCC4)oc3Sc3ccc(Cl)cc3)cc21 [Example B5.7, 6-{5-[(4-chlorophenyl)sulfanyl]-2-(tetrahydro-2H-pyran-4-yl)-1,3-oxazol-4-yl}-1-methyl-1H-benzotriazole]
9.61	115	Clc1ccc(Sc2oc(C3CCOCC3)nc2-c2ccc(N3CCNCC3)nc2)cc1 [Example B5.9, 1-(5-{5-[(4-chlorophenyl)sulfanyl]-2-(tetrahydro-2H-pyran-4-yl)-1,3-oxazol-4-yl}pyridin-2-yl)piperazine]

More lines, now with the values behind:

SMILES	IC50 [1] [nM]	IC50 [2] [nM]
COCCOCC(=O)N1CCC(c2nc(-c3ccc([S+](C)[O-])cc3)c(Sc3ccc(Cl)cn3)o2)CC1 (stereo not shown) [Example A7.25, 1-(4-{5-[(5-chloropyridin-2-yl)sulfanyl]-4-[4-(methylsulfinyl)phenyl]-1,3-oxazol-2-yl}piperidin-1-yl)-2-(2-methoxyethoxy)ethanone]	525	4670
C[S+]([O-])c1ccc(-c2nc(C3CCN(C(=O)Oc4ccccc4)CC3)oc2Sc2ccc(Cl)cn2)cc1 (stereo not shown) [Example A7.21, phenyl 4-{5-[(5-chloropyridin-2-yl)sulfanyl]-4-[4-(methylsulfinyl)phenyl]-1,3-oxazol-2-yl}piperidine-1-carboxylate]	25.9	124
CCOC(=O)N1CCC(c2nc(-c3ccc([S+](C)[O-])cc3)c(Sc3ccc(Cl)cn3)o2)CC1 (stereo not shown) [Example A7.23, ethyl 4-{5-[(5-chloropyridin-2-yl)sulfanyl]-4-[4-(methylsulfinyl)phenyl]-1,3-oxazol-2-yl}piperidine-1-carboxylate]	61.7	436
C[S+]([O-])c1ccc(-c2nc(C3CCN(C(=O)OCCNCCO)CC3)oc2Sc2ccc(Cl)cn2)cc1 (stereo not shown) [Example A7.30, 2-[(2-hydroxyethyl)amino]ethyl 4-{5-[(5-chloropyridin-2-yl)sulfanyl]-4-[4-(methylsulfinyl)phenyl]-1,3-oxazol-2-yl}piperidine-1-carboxylate]	2140	≥ 10000
Clc1ccc(Sc2oc(C3CCOCC3)nc2-c2ccc(N3CCOCC3)nc2)cc1 [Example B5.3, 4-(5-{5-[(4-chlorophenyl)sulfanyl]-2-(tetrahydro-2H-pyran-4-yl)-1,3-oxazol-4-yl}pyridin-2-yl)morpholine]	12.8	38.5
CN1CCC(c2nc(-c3ccc([S+](C)[O-])cc3)c(Sc3ccc(Cl)cn3)o2)CC1 (stereo not shown) [Example A7.20, 5-chloro-2-({2-(1-methylpiperidin-4-yl)-4-[4-(methylsulfinyl)phenyl]-1,3-oxazol-5-yl}sulfanyl)pyridine]	1700	≥ 10000
CN(C)CCOC(=O)N1CCC(c2nc(-c3ccc([S+](C)[O-])cc3)c(Sc3ccc(Cl)cn3)o2)CC1 (stereo not shown) [Example A7.29, 2-(dimethylamino)ethyl 4-{5-[(5-chloropyridin-2-yl)sulfanyl]-4-[4-(methylsulfinyl)phenyl]-1,3-oxazol-2-yl}piperidine-1-carboxylate]	1910	≥ 10000
COCCOCCOCC(=O)N1CCC(c2nc(-c3ccc([S+](C)[O-])cc3)c(Sc3ccc(Cl)cn3)o2)CC1 (stereo not shown) [Example A7.26]	748	6550
CC(C)(O)c1ccc(-c2nc(C3CCOCC3)oc2Sc2ccc(Cl)cc2)cn1 [Example B5.1, 2-(5-{5-[(4-chlorophenyl)sulfanyl]-2-(tetrahydro-2H-pyran-4-yl)-1,3-oxazol-4-yl}pyridin-2-yl)propan-2-ol]	17.9	45.1
Clc1ccc(Sc2oc(C3CCOCC3)nc2-c2ccc3[nH]ncc3c2)cc1 [Example B5.2, 5-{5-[(4-chlorophenyl)sulfanyl]-2-(tetrahydro-2H-pyran-4-yl)-1,3-oxazol-4-yl}-1H-indazole]	4.19	10.9
CC(C)OC(=O)N1CCC(c2nc(-c3ccc([S+](C)[O-])cc3)c(Sc3ccc(Cl)cn3)o2)CC1 (stereo not shown) [Example A7.22, propan-2-yl 4-{5-[(5-chloropyridin-2-yl)sulfanyl]-4-[4-(methylsulfinyl)phenyl]-1,3-oxazol-2-yl}piperidine-1-carboxylate]	45.8	383
C[S+]([O-])c1ccc(-c2nc(C3CCNCC3)oc2Sc2ccc(Cl)cn2)cc1 (stereo not shown) [Example A7.15, 4-{5-[(5-Chloropyridin-2-yl)sulfanyl]-4-[4-(methylsulfinyl)phenyl]-1,3-oxazol-2-yl}piperidinium chloride]	1420	≥ 10000
C[S+]([O-])c1ccc(-c2nc(C3CCOCC3)oc2Sc2ccc(Cl)cn2)cn1 (stereo not shown) [Example A7.2, 5-chloro-2-({4-[6-(methylsulfinyl)pyridin-3-yl]-2-(tetrahydro-2H-pyran-4-yl)-1,3-oxazol-5-yl}sulfanyl)pyridine]	293	935
CC(=O)N1CCC(c2nc(-c3ccc([S+](C)[O-])cc3)c(Sc3ccc(Cl)cn3)o2)CC1 (stereo not shown) [Example A7.18, 1-(4-{5-[(5-Chloropyridin-2-yl)sulfanyl]-4-[4-(methylsulfinyl)phenyl]-1,3-oxazol-2-yl}piperidin-1-yl)ethanone]	839	4420
CC(C)(C)OC(=O)N1CCC(c2nc(-c3ccc(S(C)(=O)=O)cc3)c(Sc3ccc(Cl)cn3)o2)CC1 [Example A7.14, tert-butyl 4-{5-[(5-chloropyridin-2-yl)sulfanyl]-4-[4-(methylsulfonyl)phenyl]-1,3-oxazol-2-yl}piperidine-1-carboxylate]	65.3	443
COC(=O)N1CCC(c2nc(-c3ccc([S+](C)[O-])cc3)c(Sc3ccc(Cl)cn3)o2)CC1 (stereo not shown) [Example A7.17, methyl 4-{5-[(5-chloropyridin-2-yl)sulfanyl]-4-[4-(methylsulfinyl)phenyl]-1,3-oxazol-2-yl}piperidine-1-carboxylate]	75.1	547
